Measured values: patent US9034336B2, “Immunomodulators and immunomodulator conjugates” (Regents of the University of Minnesota, priority 2011, dated 2015)

How the values were obtained:
human TLR7 = biological target: T1, human TLR7 (Homo sapiens, UniProt Q9NYK1); assay: TLR7/8-NF-κB reporter assay (HEK-TLR7, SEAP); assay type: cell-based; conditions: HEK-TLR7 cells, 24 hrs; for EC50: read-out: EC50 of TLR7 (mean ± SD)
T1 construct: host or cells: HEK (HEK293) cells with NF-kB-responsive SEAP reporter
T1 sequence (Q9NYK1 27-1049): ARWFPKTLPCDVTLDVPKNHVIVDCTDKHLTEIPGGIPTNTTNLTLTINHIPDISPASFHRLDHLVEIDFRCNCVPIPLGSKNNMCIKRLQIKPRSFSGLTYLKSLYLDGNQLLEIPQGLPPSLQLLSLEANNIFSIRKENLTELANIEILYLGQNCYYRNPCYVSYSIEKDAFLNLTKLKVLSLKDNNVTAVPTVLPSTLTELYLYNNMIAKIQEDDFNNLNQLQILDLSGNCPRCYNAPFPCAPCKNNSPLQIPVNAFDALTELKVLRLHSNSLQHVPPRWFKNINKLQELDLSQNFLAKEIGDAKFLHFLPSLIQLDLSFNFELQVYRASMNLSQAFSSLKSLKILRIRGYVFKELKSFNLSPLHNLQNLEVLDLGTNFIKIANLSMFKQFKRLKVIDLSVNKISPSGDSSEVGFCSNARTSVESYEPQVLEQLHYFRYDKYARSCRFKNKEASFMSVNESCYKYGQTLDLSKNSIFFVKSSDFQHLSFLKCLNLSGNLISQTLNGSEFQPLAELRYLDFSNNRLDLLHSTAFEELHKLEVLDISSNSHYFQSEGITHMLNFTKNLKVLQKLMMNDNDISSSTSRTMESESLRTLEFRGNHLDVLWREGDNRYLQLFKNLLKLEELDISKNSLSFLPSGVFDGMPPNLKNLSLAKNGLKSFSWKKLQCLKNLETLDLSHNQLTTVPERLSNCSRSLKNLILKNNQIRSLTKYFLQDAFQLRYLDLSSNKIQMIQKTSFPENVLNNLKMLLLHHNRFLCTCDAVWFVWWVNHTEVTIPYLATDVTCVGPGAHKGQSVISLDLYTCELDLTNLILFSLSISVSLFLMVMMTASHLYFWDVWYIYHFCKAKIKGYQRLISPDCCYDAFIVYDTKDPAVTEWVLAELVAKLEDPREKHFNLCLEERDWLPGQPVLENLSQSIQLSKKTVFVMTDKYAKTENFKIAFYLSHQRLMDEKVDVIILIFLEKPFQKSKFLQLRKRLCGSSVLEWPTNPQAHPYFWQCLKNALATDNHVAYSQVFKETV
Description: (§1) Human embryonic kidney (HEK) cells that were stably transfected with human TLR7 or TLR8 and an NF-κB—responsive secreted embryonic alkaline phosphatase (SEAP) gene (HEK-TLR7/8) were purchased from InvivoGen (San Diego, Calif.). The procedure used to measure TLR7 or TLR8 agonist activity was conducted as described by Hood et al. (Hood J. D, et al., Human Vaccines, 2010, 6, 4, 322-335). Briefly, HEK-TLR7/8 cells were stimulated with 3.3 or 30 μM of compound in a 96-well plate in DMEM containing 10% FBS and 0.01% Normocin (InvivoGen) for 24 hrs. Twenty microliters of the supernatant from each well was incubated with Quanti-blue substrate solution (InvivoGen) at 37° C. for 1 hour and absorbance was read at 650 nm using a Synergy plate reader (Biotek, Winooski, Vt.).

human TLR8 = biological target: T2, human TLR8 (Homo sapiens, UniProt Q9NR97); assay: TLR7/8-NF-κB reporter assay (HEK-TLR8, SEAP); assay type: cell-based; conditions: HEK-TLR8 cells, 24 hrs, read-out: EC50 of TLR8 (mean ± SD)
T2 construct: host or cells: HEK (HEK293) cells with NF-kB-responsive SEAP reporter
T2 sequence (Q9NR97 27-1041): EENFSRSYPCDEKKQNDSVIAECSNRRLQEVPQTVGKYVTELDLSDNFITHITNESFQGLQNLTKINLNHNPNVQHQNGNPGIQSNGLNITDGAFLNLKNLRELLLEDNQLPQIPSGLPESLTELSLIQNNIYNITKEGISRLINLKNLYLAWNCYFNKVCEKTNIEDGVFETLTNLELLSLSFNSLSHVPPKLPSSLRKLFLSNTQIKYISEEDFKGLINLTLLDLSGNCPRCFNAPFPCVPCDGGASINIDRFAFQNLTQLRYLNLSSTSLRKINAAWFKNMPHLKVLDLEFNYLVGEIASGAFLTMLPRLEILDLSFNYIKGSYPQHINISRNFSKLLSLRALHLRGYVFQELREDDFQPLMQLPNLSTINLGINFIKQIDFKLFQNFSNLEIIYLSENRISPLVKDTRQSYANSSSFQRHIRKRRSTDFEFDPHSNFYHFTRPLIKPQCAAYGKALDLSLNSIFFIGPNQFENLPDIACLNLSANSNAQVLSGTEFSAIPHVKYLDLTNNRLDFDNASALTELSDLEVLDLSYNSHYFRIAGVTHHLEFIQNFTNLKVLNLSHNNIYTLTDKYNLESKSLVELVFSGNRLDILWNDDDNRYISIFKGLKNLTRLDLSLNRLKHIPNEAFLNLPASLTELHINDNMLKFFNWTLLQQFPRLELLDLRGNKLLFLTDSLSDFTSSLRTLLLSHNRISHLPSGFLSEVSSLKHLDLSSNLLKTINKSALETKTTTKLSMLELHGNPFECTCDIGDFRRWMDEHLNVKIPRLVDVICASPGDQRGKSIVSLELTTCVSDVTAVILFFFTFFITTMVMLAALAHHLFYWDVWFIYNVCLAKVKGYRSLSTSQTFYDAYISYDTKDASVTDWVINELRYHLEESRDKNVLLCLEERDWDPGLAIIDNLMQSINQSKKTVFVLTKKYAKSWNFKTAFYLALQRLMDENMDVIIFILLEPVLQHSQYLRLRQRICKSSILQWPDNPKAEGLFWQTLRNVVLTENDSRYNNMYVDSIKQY
Description: as §1

Structure (SMILES) | EC50 of TLR7 (mean ± SD) (human TLR7) | EC50 (human TLR7) [µM] | EC50 (human TLR8) [µM]
COC(=O)c1ccc2c(c1)nc(N)c1ncn(CC(C)(C)O)c12 [Compound 421, 4-amino-1-(2-hydroxy-2-methylpropyl)-7-methoxycarbonyl-1H-imidazo[4,5-c]quinoline] | NO EC50 |  | 
COC(=O)c1ccc2c(c1)nc(N)c1ncn(Cc3ccccc3)c12 [Compound 422, 4-amino-1-benzyl--7-methoxycarbonyl-1H-imidazo[4,5-c]quinoline] | NO EC50 |  | 
COC(=O)c1ccc2nc(N)c3ncn(CC(C)C)c3c2c1 [Compound 504, 4-amino-1-isobutyl-8-methoxycarbonyl-1H-imidazo[4,5-c]quinoline] |  | 21.2 ± 5.22 | 21.2 ± 19.9
CCOC(=O)c1ccc2c(c1)nc(N)c1ncn(CC(C)C)c12 [Compound 511, 4-Amino-7-ethoxycarbonyl-1-(2-methylpropyl)-1H-imidazo[4,5-c]quinoline] |  | 7.92 ± 1.49 | 
COC(=O)c1ccc2c(c1)nc(N)c1nc(C)n(CC(C)(C)O)c12 [Compound 516, 4-amino-1-(2-hydroxy-2-methylpropyl)-7-methoxycarbonyl-2-methyl-1H-imidazo[4,5-c]quinoline] |  | 49.2 ± 17.3 | 
CCc1nc2c(N)nc3cc(C(=O)OC)ccc3c2n1CC(C)(C)O [Compound 517, 4-amino-2-ethyl-1-(2-hydroxy-2-methylpropyl)-7-methoxycarbonyl-1H-imidazo[4,5-c]quinoline] |  | 29.1 ± 4.33 | 
CCCc1nc2c(N)nc3cc(C(=O)OC)ccc3c2n1CC(C)(C)O [Compound 518, 4-amino-1-(2-hydroxy-2-methylpropyl)-7-methoxycarbonyl-2-propyl-1H-imidazo[4,5-c]quinoline] |  | 23.8 ± 4.34 | 
CCCCc1nc2c(N)nc3cc(C(=O)OC)ccc3c2n1CCOCc1ccccc1 [Compound 520, 4-Amino-1-(2-(benzyloxy)ethyl)-2-butyl-7-methoxycarbonyl 1H-imidazo[4,5-c]quinoline] |  | 2.42 ± 0.19 | 31 ± 10.6
CCCCc1nc2c(N)nc3cc(C(=O)OC)ccc3c2n1CCOC [Compound 521, 4-Amino-2-butyl-1-(2-methoxyethyl)-7-methoxycarbonyl-1H-imidazo[4,5-c]quinolone] |  | 5.67 ± 0.81 | 
CCCCc1nc2c(N)nc3cc(C(=O)OCC)ccc3c2n1CC(C)(C)O [Compound 525, 4-Amino-2-butyl-1-(2-hydroxyl-2-methylprop-yl)-7-ethoxycarbonyl-1H-imidazo[4,5-c]quinoline] |  | 2.21 ± 0.44 | 19.9 ± 1.04
CCCCc1nc2c(N)nc3cc(C(=O)OC(C)C)ccc3c2n1CC(C)(C)O [Compound 526] |  | 3.94 ± 0.25 | 17.2 ± 5.33
CCCCCc1nc2c(N)nc3cc(C(=O)OC)ccc3c2n1CC(C)(C)O [Compound 527, 4-Amino-1-(2-hydroxyl-2-methylpropyl)-7-methoxy carbonyl-2-pentyl-1H-imidazo[4,5-c]quinoline] |  | 2.6 ± 0.18 | 7.15 ± 0.29
CCCCc1nc2c(N)nc3cc(C(=O)OC)ccc3c2n1CCO [Compound 529, 4-Amino-2-butyl-1-(2-hydroxyethyl)-7-methoxycarbonyl-1H-imidazo[4,5-c]quinoline] |  | 22.9 ± 5.28 | 4.41 ± 0.49
CCCCc1nc2c(N)nc3cc(C(=O)OC(C)C)ccc3c2n1CC(C)O (centres unmarked) [Compound 530, 4-Amino-2-butyl-1-(2-hydroxypropyl)-7-isopropoxycarbonyl-1H-imidazo[4,5-c]quinoline] |  | 2.5 ± 0.15 | 5.82 ± 0.2
CCCCc1nc2c(N)nc3cc(C(=O)OCC)ccc3c2n1CC(C)O (centres unmarked) [Compound 531, 4-Amino-2-butyl-1-(2-hydroxypropyl)-7-ethoxycarbonyl-1H-imidazo[4,5-c]quinoline] |  | 5.23 ± 0.16 | 4.73 ± 0.55
COC(=O)c1ccc2c(c1)nc(N)c1nc(Cc3ccccc3)n(CC(C)(C)O)c12 [Compound 535, 4-Amino-2-benzyl-1-(2-hydroxyl-2-methylprop-yl)-7-methoxycarbonyl-1H-imidazo[4,5-c]quinoline] |  | 4.79 ± 0.46 | 
COCCc1nc2c(N)nc3cc(C(=O)OC)ccc3c2n1CC(C)O (centres unmarked) [Compound 536, 4-Amino-1-(2-hydroxypropyl)-2-(2-methoxyethyl)-7-carboxylate-1H-imidazo[4,5-c]quinoline] |  | 20.2 ± 4.11 | 31.7 ± 1.54
